According to patent US7879835B2 (Korea Research Institute of Chemical Technology, priority 2004, dated 2011):

Key:
[1] = test system: osteoclast (TRAP-positive multinuclear cell) formation; assay: Inhibitory effect on osteoclast formation (TRAP staining); type: cell-based, mice; conditions: 8 days culture with M-CSF and RANKL, compared to control
Outline: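 Non-adherent bone marrow cells from 7–9-week-old female mice, 2×10^5 per well, cultured 8 days with M-CSF (20 ng/ml), RANKL (30 ng/ml) and compound at 0.3, 1.0 or 3 μM. Formation scored by TRAP staining after fixation, 1 h at 37 °C, pH 5.0.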

osteoclasts = assay: Inhibitory effect on resorption activity of osteoclast (resorption pit area on calcium phosphate-coated plate); type: cell-based, mice; conditions: compared to control
Procedure: After finishing culture, the plate was washed with distilled water, and 50 μl/well of 5% sodium hypochlorite was added to the plate. The plate was let alone for 5 min, washed again with distilled water to remove the adherent cells, and dried at room temperature. Then, the area of formed resorption pits was calculated by means of Image Pro Plus software (Media Cybernetics Ver. 3.0).

[2] = In vitro pharmacokinetics: metabolic stability in liver microsome; type: in vitro ADME; conditions: human liver microsome 1 mg/ml, 20 μM compound
Procedure: Metabolic stabilities of the compounds of the Examples were examined by employing microsome samples prepared from the human liver.
Each 20 μM of the compounds were reacted with 1 mg/ml of liver microsome and the half-lives and one-hour stabilities of the compounds were determined.

rats = assay: In vivo acute toxicity test (LD50); conditions: single dose, 2 weeks observation
Procedure: In order to determine the acute toxicities of the compounds prepared in Examples, 6-week old specific pathogen-free (SPF) rats each weighing […] were divided into groups of 10 rat each.
In case of subcutaneous administration, each of the compounds was dissolved in 5% PEG400 solution to a concentration of 20 mg/ml, the resulting solution was serially diluted with 5% PEG400 solution to concentrations of 5, 2.5, 1.25 and 0.625 mg/ml, and the dilutions were subcutaneously injected once to the rats at a dose of 10 ml/kg body weight.
In case of oral administration, each of the compounds was dissolved in soybean oil to a concentration of 180 mg/ml, the resulting solution was serially diluted with soybean oil to concentrations of 80, 20 and 5 mg/ml, and the dilutions were orally administered once to the rats at a dose of 20 ml/kg body weight. […]
During 2 weeks after the administration of the compounds, the death rate, clinical symptoms and weight changes of the rats were observed, and hematological and biochemical tests on blood samples were performed. Then, the rats were sacrificed and the internal organs were visually examined to check any abnormal signs in the organs of chest and abdomen.

MG-63 cells = assay: Cytotoxicity test against osteoblast (MTT); type: cell-based, human
Procedure: (§1) In order examine the toxicities of the compounds of the Examples against osteoclast pregenitors, pregenitor cells were aliquotted onto a 96-well microplate at a density of 2×10^5 cells per well, treated with 2, 4 and 8 μM of the test compounds, respectively, and cultured for 48 hrs in α-MEM supplemented with 20 ng/ml of M-CSF (Peprotech, USA) using 37° C. incubator (5% CO2). At 3 hrs before the culture was finished, 50 μl of MTT (3-(4,5-dimethylthiazol-2-yl)-2,5-diphenyltetrazolium bromide) solution (50 μg/ml) was added to each well. Upon completion of the cell culture, the supernatant was removed, and the precipitated dye was reacted with 100 μl of isopropanol/0.04 N HCl at room temperature for 30 min to dissolve it. The absorbances of the wells were measured at 550 nm, and the relative absorbance of each well relative to that of the control (set as 100) is shown in Table 6.
In order to examine the toxicity of the compounds of the Examples against osteoblasts, human osteosarcoma-derived cell line, MG-63 (ATCC No. CRL-1427) cells were treated with 0.1, 0.3, 1.0 and 3.0 μM of the compounds of the Examples, and cultured in DMEM supplemented with 10% FBS (fetal bovine serum).

[3] = test system: osteoclast pregenitor cells; assay: Cytotoxicity against osteoclast pregenitor (MTT); type: cell-based, mice; conditions: 48 hrs, absorbance at 550 nm
Procedure: as §1

[4] = In vivo pharmacokinetics using female mice (serum concentration, HPLC)
Procedure: Female mice each weighing […] were divided into groups of 5 mice each. The mice were anesthetized with ether, catheterized in their femoral artery and vein, respectively, and administered with 0.5 mg/kg body weight of compounds 234 and 274, and 5 mg/kg body weight of compounds 388, 404 and 415, respectively, via intravenous injection. Alternatively, 15 mg/kg body weight of compound 274 and 10 mg/kg body weight of compound 234 were orally administered to the mice.
At 0, 5, 10, 15 and 30 minutes and 1, 2, 4, 6, 9 and 12 hours after the intravenous injection, or at 0, 10, 20 and 40 minutes and 1, 2, 4, 6, 9 and 12 hours after the oral administration, 0.3 ml blood samples were taken from the mice through femoral artery. The blood samples were kept on an ice bath for 30 minutes and centrifuged at 3,000 rpm for 10 minutes to obtain a supernatant (serum). The supernatant samples were stored at −20° C.
Standard solution: Compounds 234, 274, 388, 404 and 415 were respectively dissolved in methanol to a concentration of 1 mg/ml to obtain stock solutions. The stock solutions were diluted with methanol to obtain standard solutions having concentrations of 40, 20, 10, 2, 1, 0.5, 0.2, 0.05 and 0.02 μg/ml, respectively.
Standard calibration curve: A stand calibration curve was prepared by employing calibration concentrations of 0.002, 0.005, 0.02, 0.05, 0.1, 0.2, 1, 2 and 4 μg/ml.
10 μl each of the standard solutions prepared above was added to 100 μl of normal serum sample and diluted 10 times. 250 μl of acetonitrile was added to the resulting dilution and the mixture was centrifuged for 10 minutes to obtain a supernatant. 300 μl of the supernatant was dried by evaporation under a nitrogen atmosphere and reconstituted by adding 50 μl of methanol. 20 μl of the resulting solution was analyzed by HPLC to prepare a standard calibration curve. HPLC was performed with Shimadzu ODS2 column (4.6×250 mm, 5 μm by employing a mixture of methanol/water (90/10 (v/v)) as the mobile phase at a flow rate of 1.2 ml/min, and measuring the absorbance at 240 nm.
Extraction: 100 μl of the serum sample obtained in (4-2-1) was put into a 1 ml microtube and 10 μl of methanol was added thereto. 250 μl of acetonitrile was added to the microtube and the mixture was centrifuged for 10 minutes to obtain a supernatant. 300 μl of the supernatant was dried by evaporation under a nitrogen atmosphere and reconstituted by adding 50 μl of methanol. 20 μl of the resulting solution was analyzed by the HPLC method as above.
Average concentrations of the compounds in the serum samples were plotted in a semi-log scale against the time lapsed after the administration, and the pharmacokinetic parameters were determined as a non-compartment open model by employing WinNonlin® program (Pharsight Corporation).

Row | SMILES | Reduction (%) of the resorption pit area of osteoclasts (osteoclasts; 0.3 uM) [%] | Reduction (%) of the resorption pit area of osteoclasts (osteoclasts; 1 uM) [%] | Reduction (%) of the resorption pit area of osteoclasts (osteoclasts; 3 uM) [%] | One-hour stability [2] [%] | LD50 (rats; PO) | LD50 (rats; SC) [mg/kg body weight] | Osteoclast formation inhibitory effects (%) ([1]; 0.3 μM) | Osteoclast formation inhibitory effects (%) ([1]; 1.0 μM) | Osteoclast formation inhibitory effects (%) ([1]; 3.0 μM) | relative absorbance relative to that of the control (set as 100), MTT (MG-63 cells; 0.33 uM) | relative absorbance relative to that of the control (set as 100), MTT (MG-63 cells; 1 uM) | relative absorbance relative to that of the control (set as 100), MTT (MG-63 cells; 3 uM) | Half-life [2] [h] | relative absorbance relative to that of the control (set as 100), MTT (MG-63 cells; 0.11 uM) | other results
1 | CO/C=C(/C(=O)OC)c1ccc(Cl)cc1COc1ccc(OCC2CC2)cc1 | 100 | 100 | 100 | 70 | 100-300 mg/kg body weight | 5 | – | – | – | – | – | – | – | – | inhibition at 0.3 µM ([1]; Mus musculus, Osteoclast, 192 h, 0.3 μM, read-out: Osteoclast formation inhibitory effects (%)): 98%; inhibition at 1 µM ([1]; Mus musculus, Osteoclast, 192 h, 1.0 μM, read-out: Osteoclast formation inhibitory effects (%)): 100%; inhibition at 3 µM ([1]; Mus musculus, Osteoclast, 192 h, 3.0 μM, read-out: Osteoclast formation inhibitory effects (%)): 100%; half-life at 20 µM ([2]; liver microsomes): > 3 h
2 | CCCCCCOc1cccc(/C(C)=N/OCc2ccccc2/C(=C\OC)C(=O)OC)c1 [compound 15, (E)-methyl 2-(((({1E}-1-(3-(n-hexyloxy)phenyl)ethylidene)amino)oxy)methyl)phenyl-3-methoxyacrylate] | 41 | 57 | 93 | 33 | >2000 mg/kg body weight | >50 | 92 | 100 | 100 | 105 | 85 | 76 | 0.615 | – | –
3 | C=CCOc1ccc(OCc2ccccc2/C(=C\OC)C(=O)OC)cc1 [compound 179] | 86 | 100 | 100 | 70 | 500 mg/kg body weight | 42 | 84 | 100 | 100 | 111 | 108 | 106 | >3 | 117 | –
4 | C=CCOc1cccc(OCc2ccccc2/C(=C\OC)C(=O)OC)c1 [compound 211] | 96 | 100 | 100 | 60 | 500 mg/kg body weight | 51 | 23 | 96 | 100 | 101 | 105 | 106 | 1.77 | 103 | relative absorbance relative to that of the control (set as 100), MTT ([3]; 2 uM): 88; relative absorbance relative to that of the control (set as 100), MTT ([3]; 4 uM): 103; relative absorbance relative to that of the control (set as 100), MTT ([3]; 8 uM): 103
5 | CO/C=C(/C(=O)OC)c1ccccc1COc1cccc(OCCN2CCOCC2)c1 [compound 234] | 95 | 100 | 100 | 83 | 100-300 mg/kg body weight | 7 | 25 | 100 | 100 | 98 | 115 | 97 | >3 | – | AUC (area under the curve of blood concentration versus time) ([4]; I.V.): 477.6 ± 96.4 µg·h/mL; CL (clearance) ([4]; I.V.): 1.1 ± 0.2 mL/h; Half-life ([4]; I.V.): 10.6 ± 4.8 h; Vd (volume of distribution) ([4]; I.V.): 0.0152 ± 0.0052 L/kg; AUC (area under the curve of blood concentration versus time) ([4]; Oral): 680.4 ± 426.2 µg·h/mL; CL (clearance) ([4]; Oral): 19.5 ± 10.6 mL/h; Half-life ([4]; Oral): 12.8 ± 7.7 h; Vd (volume of distribution) ([4]; Oral): 0.3544 ± 0.2456 L/kg; bioavailability ([4]; oral versus I.V.): 35.4%
6 | C=CCOc1ccc(OCc2cc(Cl)ccc2/C(=C\OC)C(=O)OC)cc1 [compound 264] | 100 | 100 | 100 | 80 | 269 mg/kg body weight | 25 | 98 | 100 | 100 | 107 | 104 | 92 | >3 | 103 | –
